The text below walks through data of patent publication US20240327421A1 (Marquette University, priority 2017, published 2024).

Where “and” joins values, the source holds several entries; their conditions need not be identical. Equal values may be shown once.

The target in data set [1] is T1, human ER Beta ligand-binding domain (LBD) (Homo sapiens, UniProt Q92731).
T1 construct: purchased Thermo Fisher Scientific
The data set is described as follows: TR-FRET competitive binding assay, ERβ LBD. To be noted: displacement of fluorescent tracer from ERβ LBD.

The target in data set [2] is T2, ERα (Homo sapiens, UniProt P03372).
T2 construct: employs a full length and native ER (comprised of an ER LBD and an ER DBD)
T2 sequence (P03372 1-595): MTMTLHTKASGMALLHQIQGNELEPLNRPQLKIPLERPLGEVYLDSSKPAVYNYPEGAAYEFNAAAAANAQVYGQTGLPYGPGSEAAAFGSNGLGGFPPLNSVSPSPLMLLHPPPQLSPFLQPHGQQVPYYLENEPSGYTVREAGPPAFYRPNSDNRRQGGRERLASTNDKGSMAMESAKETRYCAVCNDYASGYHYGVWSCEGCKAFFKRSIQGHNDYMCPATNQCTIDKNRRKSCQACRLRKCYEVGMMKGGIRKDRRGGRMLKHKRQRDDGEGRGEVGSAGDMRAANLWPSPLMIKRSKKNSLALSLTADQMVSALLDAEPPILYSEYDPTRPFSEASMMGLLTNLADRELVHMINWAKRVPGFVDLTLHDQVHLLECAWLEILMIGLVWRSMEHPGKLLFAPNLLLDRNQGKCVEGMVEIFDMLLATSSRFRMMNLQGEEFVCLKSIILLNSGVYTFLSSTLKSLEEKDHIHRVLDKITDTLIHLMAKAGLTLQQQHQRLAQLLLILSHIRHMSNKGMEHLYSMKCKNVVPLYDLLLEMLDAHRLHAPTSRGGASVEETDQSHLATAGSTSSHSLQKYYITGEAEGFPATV
In words: Cell-based luciferase reporter assay, full length ERα, agonist mode. To be noted: 22 h. (In general: A reporter such as luciferase makes a cellular process visible.)

Data set [3] concerns the target T2, ERα. The data set is described as follows: Cell-based luciferase reporter assay, full length ERα, antagonist mode.
A further data set deals with ovariectomized mice. The data set is described as follows: Peripheral tissue pathology (H&E of liver, kidney, heart). In kind it is in vivo. The conditions noted are these: 24 h after single IP injection; 0.5 or 5 mg/kg ISP358-2, 0.05 mg/kg DPN. Here is the method:
Assessment of Potential Peripheral Pathology. To assess possible toxicity of ISP358-2 treatment to peripheral organs, ovariectomized mice received a single intraperitoneal injection of vehicle or ISP358-2, and liver, kidney, and heart tissues were collected 24 hours later. […] Tissues were fixed in 10% formalin buffered solution for 24 hours. Twenty specimens were processed and analyzed. Each specimen contained three pieces of tissue. The tissues from each animal was transferred to a labeled cassette and processed on an automated tissue processor following standard procedures. The tissues were then embedded in paraffin wax. No specific orientation of the tissue was performed. Four-micron sections were cut from each paraffin block and placed onto a slide. The slides were then stained using hematoxylin and cosin (H&E) on an automated stainer (FIGS. 13A-13L). The slides were then examined by a pathologist (ACM) who is board certified in anatomical pathology by the American Board of Pathology. All specimens contained three tissue samples corresponding to liver, kidney, and heart. In some instances, portions of adjacent tissues were also present. […] For heart, the myocytes and coronary vessels were examined, (2) evidence of inflammation was evaluated including hepatitis, glomerulonephritis, interstitial nephritis, and myocarditis, and (3) evidence of ischemic changes was examined. […]

Where [4] appears, read: full length ERα, read-out: ERα agon. IC50.
The mark [5] stands for this setting: inhibition of estradiol-induced transcription, read-out: ERα antagon. IC50.

T1 sequence (Q92731 264-498 limits assumed): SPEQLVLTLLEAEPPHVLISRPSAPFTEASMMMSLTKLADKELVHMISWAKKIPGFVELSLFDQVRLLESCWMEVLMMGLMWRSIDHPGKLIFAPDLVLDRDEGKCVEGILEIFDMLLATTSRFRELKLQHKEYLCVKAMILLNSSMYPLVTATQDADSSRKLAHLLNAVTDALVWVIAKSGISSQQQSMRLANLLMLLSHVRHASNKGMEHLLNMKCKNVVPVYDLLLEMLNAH

For orientation: IC50 means the point on the concentration scale where inhibition reaches its midpoint. Consider `C=C1CCC(c2ccc(O)c(/C=N/O)c2)CC1` [Compound 10, 2-Hydroxy-5-(4-methylenecyclohexyl) benzaldehyde oxime], for which, in data set [1], the concentration for half-maximal inhibition (IC50) came to 0.225 ± 0.094 µM.

The molecule `OCC1(O)CCC(c2ccc(O)cc2)CC1` (single isomer, unassigned) [Compound 12, 4-(4-Hydroxy-4-(hydroxymethyl)cyclohexyl) phenol] came in with an IC50 in data set [1] of 2.7 µM. The same measure, in the same setting: the value for `Oc1ccc([C@H]2CC[C@H](O)CC2)cc1` [Compound 2, trans-4-(4-Hydroxycyclohexyl) phenol] was 7.25 µM and 7.52 µM. In data set [1], `O=C1CCC(c2ccc(O)cc2)CC1` [Compound 1, 4-(4-hydroxyphenyl) cyclohexanone] displayed an IC50 of 19 µM. In the case of `OCCC1CCC(c2ccc(O)cc2)CC1` (stereo not drawn) [Compound 25, 4-[4-(2-Hydroxyethyl)cyclohexyl] phenol], the IC50 on ERα [2] (setting [4]) was greater than 50 µM; on ERα [3] (setting [5]), greater than 10 µM.

For `C=C1CCC(c2ccc(O)cc2)CC1` [Compound 7, 4-(4-Hydroxyphenyl) methylenecyclohexane], the IC50 at ERα [2] (setting [4]) and on ERα [3] (setting [5]) was greater than 10 µM throughout. Turning to `N#CC(Cc1ccc(O)cc1)c1ccc(O)cc1` (stereo not drawn) [DPN, 2,3-bis(4-hydroxyphenyl)-propionitrile, reference compound], in the data set with ovariectomized mice, the “histological abnormalities / peripheral toxicity in liver, kidney, heart” value was “Histological abnormalities were not detected”. In turn, `C=C1CCC(c2ccc(O)c(C=O)c2)CC1` [Compound 9, 2-Hydroxy-5-(4-methylenecyclohexyl) benzaldehyde] yielded an IC50 in data set [1] of 1 µM. Turning to `OCC=C1CCC(c2ccc(O)cc2)CC1` (stereo not drawn) [Compound 24, 4-(4′-Hydroxyphenyl) (2-hydroxyethylidene) cyclohexane], the IC50 came to 0.676 µM in data set [1] and 0.68 ± 0.11 µM in data set [1] (listed as (±)-24). Consider `OCC1CCC(c2ccc(O)cc2)CC1` (stereo not drawn) [15:16 (3:2), 4-(4-(Hydroxymethyl)cyclohexyl) phenol], for which the IC50 on ERα [2] (ERα agon. IC50, full length ERα) is greater than 100 µM; at ERα [3], greater than 10 µM. On to `ON=C1CCC(c2ccc(O)cc2)CC1` (stereo not drawn) [Compound 4, 4-(4-Hydroxyphenyl) cyclohexanone oxime], for which the IC50 in data set [1] is 1.57 µM. In the case of `CC1CCC(c2ccc(O)cc2)CC1` (mixture of isomers) [Compound 8, 4-(4-Methylcyclohexyl) phenol], the IC50 at ERα [2] (setting [4]) and on ERα [3] (setting [5]) was greater than 10 µM each time. For the molecule `Oc1ccc([C@]23CC[C@H](CC2)CO3)cc1` [Compound 17, 1-(4-Hydroxyphenyl)-2-oxabicyclo [2.2.2] octane], in data set [1], the IC50 amounted to 0.25 ± 0.056 µM. Consider `OCC1CC=C(c2ccc(O)cc2)CC1` (racemic) [Compound 18, 4′-(Hydroxymethyl)-2′,3′,4′,5′-tetrahydro-[1,1′-biphenyl]-4-ol], for which the IC50 on ERα [2] (setting [4]) was greater than 20 µM; on ERα [3] (setting [5]), greater than 10 µM. Molecule `C[C@]1(O)CC[C@@H](c2ccc(O)cc2)CC1` [Compound 3, 4-(4-Hydroxy-4-methylcyclohexyl) phenol] showed an IC50 in data set [1] of 6.29 µM.
